Measurements taken from patent publication US7723358B2, “Aroyl-O-piperidine derivatives for the treatment of diabetes-related problems” (Merck Patent GmbH, priority 2004, dated 2010).

The compounds below were run against T1, microsomal triglyceride transfer protein (MTP) (Mesocricetus auratus, UniProt P55158) (assay: Inhibition of MTP activity: transfer of [3H]-triolein from donor liposomes to biotinylated LDL, SPA). Conditions: MTP from golden hamster liver; incubation 18-24 hours at 37° C.; read-out: IC50, concentration that allows a 50% inhibition of MTP.
T1 construct: The supernatant comprising the soluble MTP is dialysed against Tris/HCl 150 mM; from tissue; host or cells: golden hamster liver microsomes, deoxycholate-solubilised supernatant, dialysed
T1 sequence (P55158 19-895): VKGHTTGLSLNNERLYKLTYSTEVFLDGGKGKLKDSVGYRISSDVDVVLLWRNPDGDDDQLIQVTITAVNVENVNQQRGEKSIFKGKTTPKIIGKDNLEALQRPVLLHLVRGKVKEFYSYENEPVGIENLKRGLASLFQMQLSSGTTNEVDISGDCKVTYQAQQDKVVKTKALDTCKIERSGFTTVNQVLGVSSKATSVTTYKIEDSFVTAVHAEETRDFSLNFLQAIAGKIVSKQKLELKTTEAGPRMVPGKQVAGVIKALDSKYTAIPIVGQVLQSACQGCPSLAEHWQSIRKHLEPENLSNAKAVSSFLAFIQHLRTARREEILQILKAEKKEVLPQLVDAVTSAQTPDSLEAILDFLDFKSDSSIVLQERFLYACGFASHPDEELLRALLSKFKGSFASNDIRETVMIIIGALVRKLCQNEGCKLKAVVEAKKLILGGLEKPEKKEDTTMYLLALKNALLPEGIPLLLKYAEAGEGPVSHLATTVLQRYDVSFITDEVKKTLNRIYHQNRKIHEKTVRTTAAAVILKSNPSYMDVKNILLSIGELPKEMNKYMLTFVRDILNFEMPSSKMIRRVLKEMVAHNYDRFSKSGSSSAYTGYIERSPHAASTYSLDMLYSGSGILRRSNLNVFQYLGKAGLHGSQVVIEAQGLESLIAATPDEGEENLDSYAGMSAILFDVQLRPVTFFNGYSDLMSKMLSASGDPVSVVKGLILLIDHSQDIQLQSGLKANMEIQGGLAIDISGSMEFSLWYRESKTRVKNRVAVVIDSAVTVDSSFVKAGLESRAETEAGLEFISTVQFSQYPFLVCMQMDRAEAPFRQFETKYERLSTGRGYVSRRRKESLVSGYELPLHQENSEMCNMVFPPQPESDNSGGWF
Type: biochemical
Procedure: Analysis of the Inhibition of MTP Activity
The inhibition of the activity of microsomal triglyceride transfer protein (MTP) was tested by using the following operating protocol.
The inhibition of MTP activity with a compound can be quantified by observing the inhibition of the transfer of a labelled triglyceride, from a donor particle to an acceptor particle, in the presence of MTP. The procedure for the preparation of MTP is based on the method by Wetterau and Zilversmit (Biochem. Biophys. Acta (1986) 875, 610). A few grams of golden hamster liver are taken and then rinsed several times in a 250 mM sucrose solution at 0° C. All the following steps proceed at +4° C. A homogenate at a concentration of 50% in 250 mM sucrose is prepared using a Teflon mill and then centrifuged for 10 minutes at 10 000×g at +4° C. The supernatant is then centrifuged at 105 000×g for 75 minutes at +4° C. The supernatant is discarded and the microsomal pellet is taken up in 3 ml (per g of starting liver) of Tris/HCl 150 mM pH 8.0. 1-ml aliquot fractions are stored at −80° C. until the time of use.
After thawing a fraction of microsomes (1 ml), 12 ml of refrigerated Tris/HCl 50 mM, KCl 50 mM, MgCl2 5 mM pH 7.4 buffers and 1.2 ml of deoxycholate (0.54% in water) are added. After incubation for 30 minutes at +4° C. with gentle agitation, the suspension is centrifuged at 105 000×g for 75 minutes. The supernatant comprising the soluble MTP is dialysed against Tris/HCl 150 mM, NaCl 40 mM, EDTA 1 mM, 0.02% sodium azide pH 7.4 buffer (5 times one litre over 2-3 days). The MTP is stored at +4° C., is stable for at least 30 days and is used in unmodified form in the test.
The donor particles (liposomes) are prepared from 208 μl of L-phosphatidylcholine at a concentration of 10 mg/ml in chloroform, and 480 μl of [3H]-triolein at a concentration of 0.5 mCi/ml in toluene. After stirring, the solution is evaporated under nitrogen, taken up in 6 ml of Tris/HCl 50 mM, KCl 50 mM, MgCl2 5 mM pH 7.4 buffer and incubated in an ultrasound bath for 30 minutes at room temperature. The liposomes are stored at +4° C. and sonicated again for 10 minutes before each use.
The acceptor particles are biotinylated low density lipoproteins (LDL-biot). These particles are supplied by the company Amersham.
The reaction mixture is prepared in untreated ½ well white plates (Corning Costar) by addition, in the following order, of: 5 μl of HEPES 50 mM, NaCl 150 mM, BSA 0.1% (w/v), 0.05% sodium azide (w/v), pH 7.4 buffer; 5 μl of liposome; 5 μl of LDL-biot; 5 μl of test products in DMSO; 5 μl of MTP. After incubation for 18-24 hours at 37° C., the reaction is stopped by adding 100 μl of Amersham SPA (Scintillation Proximity Assay) beads coupled to streptavidin, and the radioactivity is counted using a Top Count (Packard) machine at least one hour later. The inhibition of the transfer of the triglycerides with a compound is reflected by a reduction in the transferred radioactivity.
The results are expressed in terms of the IC50, i.e. the concentration that allows a 50% inhibition of MTP.

Row | Structure (SMILES) | IC50
1 | Cc1cccc(C(=O)Nc2cccc(OC3CCN(CC4CCOC4)CC3)c2)c1-c1ccc(OC(F)(F)F)cc1 (stereo not shown) [Example 78, 6-methyl-N-[3-[[1-[(tetrahydro-3-furanyl)-methyl]-4-piperidinyl]oxy]phenyl]-4′-(tri-fluoromethoxy)[1,1′-biphenyl]-2-carbox-amide] | 447 nM
2 | COC(=O)CCC(=O)N1CCC(Oc2cccc(NC(=O)c3ccccc3-c3ccc(OC(F)(F)F)cc3)c2)CC1 [Example 133, methyl γ-oxo-4-[3-[[[4′-(trifluoromethoxy)-[1,1′-biphenyl]-2-yl]carbonyl]amino]-phenoxy]-1-piperidinebutanoate] | 296 nM
3 | O=C(Nc1cccc(OC2CCN(C(=O)c3cccnc3)CC2)c1)c1ccccc1-c1ccc(OC(F)(F)F)cc1 [Example 118, N-[3-[[1-(3-pyridinylcarbonyl)-4-piperidin-yl]oxy]phenyl]-4′-(trifluoromethoxy)[1,1′-biphenyl]-2-carboxamide] | 202 nM
4 | CC(C)(C)C(=O)N1CCC(Oc2cccc(NC(=O)c3ccccc3-c3ccc(OC(F)(F)F)cc3)c2)CC1 [Example 140, N-[3-[[1-(2,2-dimethyl-1-oxopropyl)-4-piperidinyl]oxy]phenyl]-4′-(trifluorometh-oxy)[1,1′-biphenyl]-2-carboxamide] | 176 nM
5 | Cc1ccc(C(=O)N2CCC(Oc3cccc(NC(=O)c4cccc(C)c4-c4ccc(OC(F)(F)F)cc4)c3)CC2)cc1 [Example 116, 6-methyl-N-[3-[[1-(4-methylbenzoyl)-4-piperidinyl]oxy]phenyl]-4′-(trifluorometh-oxy)[1,1′-biphenyl]-2-carboxamide] | 49.4 nM
6 | Cc1cccc(C(=O)Nc2cccc(OC3CCN(C(=O)c4cccs4)CC3)c2)c1-c1ccc(OC(F)(F)F)cc1 [Example 99, 6-methyl-N-[3-[[1-(2-thienylcarbonyl)-4-piperidinyl]oxy]phenyl]-4′-(trifluorometh-oxy)[1,1′-biphenyl]-2-carboxamide] | 416 nM
7 | Cc1cccc(C(=O)Nc2cccc(OC3CCN(C(=O)NC(C)(C)C)CC3)c2)c1-c1ccc(OC(F)(F)F)cc1 [Example 28, N-(1,1-dimethylethyl)-4-[3-[[[6-methyl-4′-(trifluoromethoxy)[1,1′-biphenyl]-2-yl]-carbonyl]amino]phenoxy]-1-piperidine-carboxamide] | 232 nM
8 | Cc1cccc(C(=O)Nc2cccc(OC3CCN(S(=O)(=O)c4cccnc4Cl)CC3)c2)c1-c1ccc(OC(F)(F)F)cc1 [Example 19, N-[3-[[1-[(2-chloro-3-pyridinyl)sulfonyl]-4-piperidinyl]oxy]phenyl]-6-methyl-4′-(trifluoromethoxy)[1,1′-biphenyl]-2-carboxamide] | 290 nM
9 | CC(=O)OCC(=O)N1CCC(Oc2cccc(NC(=O)c3ccccc3-c3ccc(OC(F)(F)F)cc3)c2)CC1 [Example 126, N-[3-[[1-[2-(acetyloxy)acetyl]-4-piperidin-yl]oxy]phenyl]-4′-(trifluoromethoxy)[1,1′-biphenyl]-2-carboxamide] | 91.2 nM
10 | Cc1cccc(C(=O)Nc2cccc(OC3CCN(Cc4cccs4)CC3)c2)c1-c1ccc(OC(F)(F)F)cc1 [Example 59, [1,1′-biphenyl]-6-methyl-N-[3-[[1-(2-thienylmethyl)-4-piperidinyl]oxy]phenyl]-4′-(trifluoromethoxy)-2-carboxamide] | 186 nM
11 | Cc1cccc(C(=O)Nc2cccc(OC3CCN(Cc4ccncc4)CC3)c2)c1-c1ccc(OC(F)(F)F)cc1 [Example 66, 6-methyl-N-[3-[[1-(4-pyridinylmethyl)-4-piperidinyl]oxy]phenyl]-4′-(trifluorometh-oxy)[1,1′-biphenyl]-2-carboxamide] | 189 nM
12 | C=CCNC(=O)N1CCC(Oc2cccc(NC(=O)c3cccc(C)c3-c3ccc(OC(F)(F)F)cc3)c2)CC1 [Example 32, 4-[3-[[[6-methyl-4′-(trifluoromethoxy)[1,1′-biphenyl]-2-yl]carbonyl]amino]phenoxy]-N-2-propenyl-1-piperidinecarboxamide] | 161 nM
13 | COC(=O)c1cccc(NC(=O)N2CCC(Oc3cccc(NC(=O)c4cccc(C)c4-c4ccc(OC(F)(F)F)cc4)c3)CC2)c1 [Example 43, methyl 3-[[[4-[3-[[[6-methyl-4′-(trif1uoro-methoxy)[1,1′-biphenyl]-2-yl]carbonyl]-amino]phenoxy]-1-piperidinyl]carbonyl]-amino]benzoate] | 201 nM
14 | Cc1cccc(CN2CCC(Oc3cccc(NC(=O)c4cccc(C)c4-c4ccc(OC(F)(F)F)cc4)c3)CC2)n1 [Example 83, 6-methyl-N-[3-[[1-[(6-methyl-2-pyridinyl)-methyl]-4-piperidinyl]oxy]phenyl]-4′-(trifluoromethoxy)[1,1′-biphenyl]-2-carboxamide] | 633 nM
15 | CCOC(=O)CNC(=O)N1CCC(Oc2cccc(NC(=O)c3cccc(C)c3-c3ccc(OC(F)(F)F)cc3)c2)CC1 [Example 31, ethyl N-[[4-[3-[[[6-methyl-4′-(trifluorometh-oxy)[1,1′-biphenyl]-2-yl]carbonyl]amino]-phenoxy]-1-piperidinyl]carbonyl]glycinate] | 82.7 nM
16 | Cc1cccc(C(=O)Nc2cccc(OC3CCN(C(=O)NC4CCCCC4)CC3)c2)c1-c1ccc(OC(F)(F)F)cc1 [Example 34, N-cyclohexyl-4-[3-[[[6-methyl-4′-(trifluoro-methoxy)[1,1′-biphenyl]-2-yl]carbonyl]-amino]phenoxy]-1-piperidinecarboxamide] | 296 nM
17 | CCOC(=O)N1CCC(Oc2cccc(NC(=O)c3ccccc3-c3ccc(C(F)(F)F)cc3)c2)CC1 [Example 77, ethyl 4-[3-[[[4′-(trifluoromethyl)[1,1′-biphenyl]-2-yl]carbonyl]amino]phenoxy]-1-piperidinecarboxylate] | 82.5 nM
18 | Cc1cccc(C(=O)Nc2cccc(OC3CCN(C(=O)Nc4ccccc4)CC3)c2)c1-c1ccc(OC(F)(F)F)cc1 [Example 11, 4-[3-[[[6-methyl-4′-(trifluoromethoxy)[1,1′-biphenyl]-2-yl]carbonyl]amino]phenoxy]-N-phenyl-1-piperidinecarboxamide] | 347 nM
19 | Cc1cccc(C(=O)Nc2cccc(OC3CCN(C(=O)NC(C)C)CC3)c2)c1-c1ccc(OC(F)(F)F)cc1 [Example 30, N-(1-methylethyl)-4-[3-[[[6-methyl-4′-(trifluoromethoxy)[1,1′-biphenyl]-2-yl]-carbonyl]amino]phenoxy]-1-piperidine-carboxamide] | 369 nM
